{"source": "patent US8226943B2", "about": "“Antibodies to notch receptors” (OncoMed Pharmaceuticals, Inc., priority 2008, dated 2012)", "key": {"[1]": {"test_system": "stroma of B44 tumors", "assay": "Microarray gene expression in stroma of treated xenograft tumors, B44", "format": "in vivo, mice", "conditions": "59R1 vs control", "experimental": "Gene expression levels in various xenograft tumor models treated with the 59R1 IgG2 antibody were analyzed by microarray analysis. […] […] Scanned array background adjustment and signal intensity normalization were performed with GCRMA algorithm in the open-source bioconductor software (www.bioconductor.org). The expression level of each gene was normalized by z-score transformation across the samples in the control (CTRL) and treatment (59R1) groups."}, "[2]": {"test_system": "PN4 pancreatic tumor cells", "assay": "PN4 pancreatic tumor xenograft growth", "format": "in vivo, NOD/SCID mice", "experimental": "In another experiment, anti-Notch2/3 antibodies were tested for an effect on pancreatic tumor growth. NOD/SCID mice were injected with 30,000 PN4 pancreatic tumor cells sub-cu in the right flank, and tumors were allowed to grow until they had reached an average volume of 100 mm^3. Animals were randomized and dosing of anti-Notch2/3 antibody 59R1 or control antibody 1B711 was initiated. Antibodies were dosed at 15 mg/kg given once per week.\nPN4 pancreatic tumor cells (50,000 cells per mouse) were injected subcutaneously into the flank region of Nod-Scid mice. Tumors were allowed to grow for 27 days until they had reached an average volume of ˜120 mm^3. Animals were randomized into four treatment groups (n=10/group) and treatments were initiated. One group received a control antibody (1B711) at 10 mg/kg twice per week; one group received gemcitabine at 40 mg/kg once per week plus the control antibody at 10 mg/kg twice per week; one group received 59R1 at 10 mg/kg twice per week, and the fourth group received the combination of 59R1 at 10 mg/kg twice per week and gemcitabine 40 mg/kg once per week. Tumor volumes were measured on the indicated days."}, "[3]": {"test_system": "T3 breast tumor cells", "assay": "T3 breast tumor xenograft growth", "format": "in vivo, NOD/SCID mice", "experimental": "In certain embodiments, NOD/SCID mice injected with 50,000 PE13 or T3 breast tumor cells were treated with anti-Notch2/3 antibody 59R1 or control antibody 1B7.11 two days following cell injections. Antibodies were dosed at 10 mg/kg twice week.\nIn a further experiment, anti-Notch2/3 antibodies were tested for an effect on breast tumor growth. NOD/SCID mice were injected with 50,000 PE13 or T3 breast tumor cells, and tumors were allowed to grow to a size of between 65 to 200 mm^3 after which mice were randomized (n=10 per experimental group), and antibodies administration begun. Animals were treated with 15 mg/kg of either control 1B7.11 antibodies or anti-Notch2/3 59R1 antibodies twice weekly. Tumor size was measured twice weekly, and tumor volume was calculated as described (see Michieli et al., 2004)."}, "[4]": {"target": "T1, binding of DLL4 to the human Notch 2 receptor (Homo sapiens, UniProt Q04721)", "T1 construct": "expressed in transfected cells; host or cells: HEK-293, stably overexpressing human Notch2", "T1 sequence (Q04721 26-2471)": "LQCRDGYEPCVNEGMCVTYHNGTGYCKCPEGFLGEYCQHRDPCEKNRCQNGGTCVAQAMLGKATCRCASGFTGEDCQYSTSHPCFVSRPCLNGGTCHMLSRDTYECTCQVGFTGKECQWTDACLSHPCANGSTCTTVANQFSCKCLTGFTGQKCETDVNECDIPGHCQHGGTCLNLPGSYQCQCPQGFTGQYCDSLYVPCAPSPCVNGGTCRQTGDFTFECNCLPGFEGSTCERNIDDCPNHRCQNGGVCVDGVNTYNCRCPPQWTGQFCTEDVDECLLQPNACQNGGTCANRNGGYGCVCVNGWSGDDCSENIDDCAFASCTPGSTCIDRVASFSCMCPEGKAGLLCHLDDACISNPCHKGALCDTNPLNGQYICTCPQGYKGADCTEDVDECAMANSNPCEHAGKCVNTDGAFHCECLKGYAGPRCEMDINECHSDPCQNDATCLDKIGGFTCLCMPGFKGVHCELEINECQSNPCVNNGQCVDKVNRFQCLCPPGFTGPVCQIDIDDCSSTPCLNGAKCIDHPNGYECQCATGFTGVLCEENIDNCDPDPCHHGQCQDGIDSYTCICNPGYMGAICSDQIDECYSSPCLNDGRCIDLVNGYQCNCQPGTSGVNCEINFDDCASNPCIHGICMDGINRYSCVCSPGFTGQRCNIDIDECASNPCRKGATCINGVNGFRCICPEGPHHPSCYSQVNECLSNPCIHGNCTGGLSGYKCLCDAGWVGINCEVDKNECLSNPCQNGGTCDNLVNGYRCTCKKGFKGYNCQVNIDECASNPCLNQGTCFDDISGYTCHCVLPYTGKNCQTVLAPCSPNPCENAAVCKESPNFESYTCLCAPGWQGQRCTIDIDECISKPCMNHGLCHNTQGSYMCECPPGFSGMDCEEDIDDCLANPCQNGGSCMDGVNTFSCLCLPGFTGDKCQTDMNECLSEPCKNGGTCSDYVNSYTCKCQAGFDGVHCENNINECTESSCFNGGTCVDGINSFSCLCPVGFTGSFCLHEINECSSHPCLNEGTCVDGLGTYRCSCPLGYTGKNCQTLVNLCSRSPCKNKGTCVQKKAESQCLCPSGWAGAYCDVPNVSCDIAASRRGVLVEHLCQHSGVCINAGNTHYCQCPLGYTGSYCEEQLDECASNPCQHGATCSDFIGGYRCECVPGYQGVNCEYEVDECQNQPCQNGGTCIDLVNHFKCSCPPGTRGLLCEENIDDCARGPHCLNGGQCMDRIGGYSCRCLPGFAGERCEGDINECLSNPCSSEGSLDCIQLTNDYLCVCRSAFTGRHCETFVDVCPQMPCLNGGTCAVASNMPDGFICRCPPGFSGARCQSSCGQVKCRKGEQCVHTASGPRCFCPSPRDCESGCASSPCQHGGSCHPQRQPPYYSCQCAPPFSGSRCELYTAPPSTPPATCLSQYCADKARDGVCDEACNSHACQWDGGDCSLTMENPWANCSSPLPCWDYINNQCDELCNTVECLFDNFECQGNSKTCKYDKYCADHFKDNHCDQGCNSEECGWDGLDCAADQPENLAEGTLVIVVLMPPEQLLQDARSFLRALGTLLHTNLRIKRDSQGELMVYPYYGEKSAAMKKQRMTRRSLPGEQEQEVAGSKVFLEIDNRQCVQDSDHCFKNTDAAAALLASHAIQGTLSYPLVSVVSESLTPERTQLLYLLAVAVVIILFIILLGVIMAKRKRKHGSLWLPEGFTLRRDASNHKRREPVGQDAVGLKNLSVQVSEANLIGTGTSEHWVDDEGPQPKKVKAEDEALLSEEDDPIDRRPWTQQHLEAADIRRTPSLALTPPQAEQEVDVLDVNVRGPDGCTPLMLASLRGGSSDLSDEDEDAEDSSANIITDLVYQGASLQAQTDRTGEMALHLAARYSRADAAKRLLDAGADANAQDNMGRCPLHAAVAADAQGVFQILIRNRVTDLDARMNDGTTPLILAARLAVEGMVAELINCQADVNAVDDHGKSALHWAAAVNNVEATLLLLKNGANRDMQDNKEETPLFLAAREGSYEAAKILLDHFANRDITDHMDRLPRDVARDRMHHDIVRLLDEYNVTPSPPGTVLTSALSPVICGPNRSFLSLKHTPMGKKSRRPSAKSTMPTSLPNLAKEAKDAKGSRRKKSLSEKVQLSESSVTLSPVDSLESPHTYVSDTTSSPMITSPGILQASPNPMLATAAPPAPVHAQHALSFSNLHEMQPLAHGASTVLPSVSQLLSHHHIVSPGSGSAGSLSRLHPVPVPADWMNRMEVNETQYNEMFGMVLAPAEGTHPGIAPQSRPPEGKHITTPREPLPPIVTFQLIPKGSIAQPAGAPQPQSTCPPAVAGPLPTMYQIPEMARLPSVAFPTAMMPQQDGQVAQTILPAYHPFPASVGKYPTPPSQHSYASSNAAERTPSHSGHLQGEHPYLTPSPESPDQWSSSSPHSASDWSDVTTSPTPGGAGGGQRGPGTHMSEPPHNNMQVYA", "assay": "FACS blocking of hDLL4 ECD-Fc binding to human Notch2 on HEK-293 cells", "conditions": "HEK-293 stably overexpressing human Notch2", "experimental": "In addition, the 59R1 IgG2 antibody was assayed for its ability to block binding of DLL4 to the human Notch 2 receptor by FACS analysis. HEK-293 cells stably overexpressing human Notch2 were incubated with the antibody at various concentration and then detected for hNotch2 binding (FIG. 1C) by PE-conjugated goat anti-human Fc gamma specific antibody, or ligand blocking activity (FIG. 1D). Ligand blocking was determined by incubating the cells with human DLL4 ECD tagged with the rabbit Fc constant region and the 59R1 antibody at a range of concentrations, and then detecting the hDLL4 by PE-conjugated donkey anti-rabbit antibody. Binding of hNotch2 and ligand blocking activity were thus confirmed for the 59R1 IgG2 antibody."}, "[5]": {"test_system": "stroma of T1 tumors", "assay": "Microarray gene expression in stroma of treated xenograft tumors, T1", "format": "in vivo, mice", "conditions": "59R1 vs control"}}}
{"substance": "59R1: human IgG2 antibody binding Notch2 and Notch3; heavy and light chain SEQ ID NO:16 and 18; ATCC PTA-9547", "values": [{"measurement": "Fold 1416286_at (Rgs4)", "setting": "[1]", "result": "−1.57"}, {"measurement": "Fold 1417466_at (Rgs5)", "setting": "[1]", "result": "−2.22"}, {"measurement": "Fold 1417714_x_at (Hba-al/Hba-a2)", "setting": "[1]", "result": "−2.56"}, {"measurement": "Fold 1418829_a_at (Eno2)", "setting": "[1]", "result": 1.71}, {"measurement": "Fold 1419302_at (Heyl)", "setting": "[1]", "result": "−1.12"}, {"measurement": "Fold 1420872_at (Gucy1b3)", "setting": "[1]", "result": "−1.65"}, {"measurement": "Fold 1420941_at (Rgs5)", "setting": "[1]", "result": "−2.09"}, {"measurement": "Fold 1420942_s_at (Rgs5)", "setting": "[1]", "result": "−2.43"}, {"measurement": "Fold 1421964_at (Notch3)", "setting": "[1]", "result": "−2.03"}, {"measurement": "Fold 1422789_at (Aldh1a2)", "setting": "[1]", "result": "−4.92"}, {"measurement": "Fold 1428361_x_at (Hba-al/Hba-a2)", "setting": "[1]", "result": "−2.42"}, {"measurement": "Fold 1434141_at (Gucy1a3)", "setting": "[1]", "result": "−1.74"}, {"measurement": "Fold 1449280_at (Esm1)", "setting": "[1]", "result": 1.55}, {"measurement": "Fold 1449632_s_at (Fkbp10)", "setting": "[1]", "result": "−1.57"}, {"measurement": "Fold 1451501_a_at (Ghr)", "setting": "[1]", "result": "−2.24"}, {"measurement": "Fold 1452590_a_at (Plac9)", "setting": "[1]", "result": "−1.64"}, {"measurement": "Fold 1459713_s_at (Tmem16a)", "setting": "[1]", "result": "−1.70"}, {"measurement": "PN4 tumor growth, combination of 59R1 and gemcitabine", "setting": "[2]; 59R1 10 mg/kg twice per week and gemcitabine 40 mg/kg once per week", "result": "inhibited"}, {"measurement": "PN4 tumor growth compared to control", "setting": "[2]; established tumors, 15 mg/kg once per week", "result": "significantly reduced"}, {"measurement": "T3 tumor growth compared to control", "setting": "[3]; 10 mg/kg twice week, started two days following cell injections", "result": "significantly reduced"}, {"measurement": "T3 tumor growth compared to control", "setting": "[3]; established tumors, 15 mg/kg twice weekly", "result": "significantly reduced"}, {"measurement": "blocking of hDLL4 binding to human Notch2 (FACS)", "setting": "[4]", "result": "confirmed"}, {"measurement": "Fold 1416286_at (Rgs4)", "setting": "[5]", "result": "−1.13"}, {"measurement": "Fold 1417466_at (Rgs5)", "setting": "[5]", "result": "−1.99"}, {"measurement": "Fold 1417714_x_at (Hba-al/Hba-a2)", "setting": "[5]", "result": 1.42}, {"measurement": "Fold 1418829_a_at (Eno2)", "setting": "[5]", "result": 1.29}, {"measurement": "Fold 1419302_at (Heyl)", "setting": "[5]", "result": "−1.07"}, {"measurement": "Fold 1420872_at (Gucy1b3)", "setting": "[5]", "result": "−1.01"}, {"measurement": "Fold 1420941_at (Rgs5)", "setting": "[5]", "result": "−1.97"}, {"measurement": "Fold 1420942_s_at (Rgs5)", "setting": "[5]", "result": "−1.18"}, {"measurement": "Fold 1421964_at (Notch3)", "setting": "[5]", "result": "−1.01"}, {"measurement": "Fold 1422789_at (Aldh1a2)", "setting": "[5]", "result": "−2.16"}, {"measurement": "Fold 1428361_x_at (Hba-al/Hba-a2)", "setting": "[5]", "result": 1.73}, {"measurement": "Fold 1434141_at (Gucy1a3)", "setting": "[5]", "result": 1.20}, {"measurement": "Fold 1449280_at (Esm1)", "setting": "[5]", "result": 1.18}, {"measurement": "Fold 1449632_s_at (Fkbp10)", "setting": "[5]", "result": 1.07}, {"measurement": "Fold 1451501_a_at (Ghr)", "setting": "[5]", "result": "−1.12"}, {"measurement": "Fold 1452590_a_at (Plac9)", "setting": "[5]", "result": 1.20}, {"measurement": "Fold 1459713_s_at (Tmem16a)", "setting": "[5]", "result": "−2.14"}]}
